Measured values from US4835185A, “Immunomodulator for improving commercial performance of domestic animals” (Iowa State University Research Foundation, Inc., priority 1987, dated 1989).

Legend:
[1] = Feedlot steers: performance and carcass; format: in vivo, steers (cattle)
Excerpt: (§1) Seventy-two medium-frame steers, with an average weight of 578 lbs., were allotted to 12 pens of 6 animals each. A common basal diet was fed ad libitum to all cattle. This consisted of 48.9% cracked corn, 24.4% ground corn cobs, 17.8% expeller Soybean meal, 7.0% molasses (liquid), 1.3% limestone, 0.25% dicalcium phosphate, 2% salt, 0.02% trace mineral premix, and 0.1% vitamin A premix for the first 58 days of the experiment, and was changed to 54.3% cracked corn and 12.8% expeller soybean meal for the remaining 103 days of the experiment. Three pens were assigned to each treatment. The treatments consisted of four levels of Ca-KIC in a pelleted supplement: 0%, 0.02%, 0.07%, and 0.20% of the basal diet (0.05% control pellets, 0.04% KIC pellets, 0.14% KIC pellets, and 0.40% KIC pellets). The pellets were preweighted and top-dressed on the basal diet twice daily. After 58 days, the cattle on the 0.20% KIC were removed from the experiment. The cattle were not implanted with a growth promotant nor were ionophores included in the diet. The cattle were placed in the feedlot and fed a growing ration for 5 weeks prior to the start of the experiment. The cattle were weighed on 2 consecutive days at the beginning and end of the experiment, and every 14 days during the trial. The cattle were sold through a commercial beef processing plant when they were approaised by visual examination to grade Choice. Loin eye area and fat thickness over the loin were measured on each carcass. Quality and yield grades, and percent kidney, heart, and lepvic (KHP) fat were estimated by the federal graders.
Therefore, an attempt was made to protect KIC from ruminal degradation. KIC pellets, resistant to rumen degradation, were made by mixing zein, ethanol, KIC, limestone, bentonite and water in a ratio of 8.3:7.4:5.2:3:2:1. This mixture was extruded through a die of 15 mm directly into a vat of liquid nitrogen. The shattered pellets were spread out and allowed to air-dry for two days. The dried pellets were coated with zein (2% w/w) by spraying with a 30% zein solution made in 80% ethanol. The pellets again were air-dried. Control pellets were made similar to the KIC pellets except that the mixture was zein, limestone, ethanol, bentonite and water in a ratio of 12:12:7.5:2.7:1. When KIC pellets were placed in the rumen (nylon bag technique), 45% of the KIC added was present in the bags after 36 hr of rumen digestion.
KIC was obtained from SOBAC, Paris, France. Zein was purchased from Freeman Industries, Tuckahoe, N.Y. Each experiment was statistically analyzed by analysis of variance with three pens per treatment.

[2] = Feedlot steers: death, sickness, condemned livers; format: in vivo, steers (cattle)
Excerpt: as §1, with “The cattle were sold through a commercial beef processing plant when they were approaised by visual examination to grade Choice.” left out, “Quality and yield grades, and percent kidney, heart, and lepvic (KHP) fat were estimated by the federal graders.” left out

lymphocytes = experiment: Study of Immune Function: lymphocyte blastogenesis, sheep (experiments 1 and 2); format: cell-based, lambs (sheep)
Protocol: Blood was collected by jugular venapuncture into acid-citrate-dextrose anticoagulant. Lymphocytes and neutrophils were isolated, and lymphocyte blastogenesis and neutrophil function evaluated. KIC was obtained from SOBAC, Paris, France. […] Each experiment was statistically analyzed by analysis of variance. In sheep experiments, individual animals were the experimental units, whereas pen means were analyzed in the cattle experiment.
^1 Background (BKG), phytohemagglutininstimulated (PHA), concanavalin
Astimulated (ConA), and pokeweed mitogenstimulated (PWM) blastogenesis
were determined by measuring the incorporation ^3 H thymidine into

white blood cells = experiment: White blood cell number and differential, sheep (experiments 1 and 2); format: in vivo, lambs (sheep)
Protocol: A study was conducted to determine if KIC administration can alter white blood cell function, specifically T lymphocyte function, in growing sheep and cattle. Eighteen medium-framed crossbred male lambs were used in experiment 1. Lambs were randomly assigned to either a control diet (n=10) or a diet supplemented with 1% KIC (n=8). Animals were fed ad libitum in individual cages. At 100 and 108 days of treatment, 50-ml blood samples were collected for lymphocyte and neutrophil function tests.
In experiment 2, 19 intact crossbred male lambs were randomly assigned to either a saline treatment group (n=9) or a KIC treatment group (n=10). Control lambs were injected with 50 ml of a saline solution, and KIC treated lambs were injected with 50 ml of a 5% solution of KIC (sodium salt) daily (~2.5 g KIC/day). All injections were made intraperitoneally in the right posterior abdominal region after disinfection of the area. At day 60 and day 66 of treatment, blood was collected for lymphocyte and neutrophil function tests.
Sheep in experiments 1 and 2 were fed diets based on a mixture of 48% corn, 5% molasses, 20% alfalfa meal, 0.8% limestone, 0.6% salt-mineral-vitamin mix and ~25% of a protein supplement (either soybean meal, corn gluten meal, or corn gluten feed). The diets were isonitrogenous and analyzed to be ~20% crude protein and 89% dry matter. The KIC diet consisted of the basal diet to which was added 1% calcium-KIC, whereas the control diet was the basal diet plus 0.25% calcium carbonate.
Blood was collected by jugular venapuncture into acid-citrate-dextrose anticoagulant. Lymphocytes and neutrophils were isolated, and lymphocyte blastogenesis and neutrophil function evaluated. KIC was obtained from SOBAC, Paris, France. Zein was purchased from Freeman Industries, Tuckahoe, NY. Each experiment was statistically analyzed by analysis of variance. In sheep experiments, individual animals were the experimental units, whereas pen means were analyzed in the cattle experiment.
^2 Total white blood cell number (WBC) is the cells per mm^3.

With `CC(C)CC(=O)C(=O)O` [KIC, alpha-ketoisocaproate] the Feed conversion improvement ([1]; 161-day trial, 0.02% KIC, NS) was 8%, the daily gain increase ([1]; 161-day trial, 0.02% KIC, p<0.01) was 14% and the daily gain increase ([1]; 161-day trial, 0.07% KIC, (NX)) was 7%. It also gave a Feed conversion improvement ([1]; 161-day trial, 0.07% KIC, NS) of 6%, a Daily gain ([1]; 58 days, 0.07% dietary KIC (0%: 2.80)) of 3.12 lb and a Feed/Gain ([1]; 58 days, 0.07% dietary KIC (0%: 5.7)) of 5.2. The Daily intake ([1]; 58 days, 0.07% dietary KIC (0%: 16.0)) was 16.3 lb DM/day, the Ending wt. ([1]; 58 days, 0.07% dietary KIC (0%: 756)) was 770 lb and the Daily gain ([1]; 58 days, 0.20% dietary KIC (0%: 2.80)) was 3.19 lb. It also gave a Feed/Gain ([1]; 58 days, 0.20% dietary KIC (0%: 5.7)) of 5.2, a Daily intake ([1]; 58 days, 0.20% dietary KIC (0%: 16.0)) of 16.3 lb DM/day and an Ending wt. ([1]; 58 days, 0.20% dietary KIC (0%: 756)) of 779 lb. The Daily gain ([1]; 58 days, % dietary KIC printed 0.2 (0%: 2.80), * p<.1) was 3.36 lb, the Feed/Gain ([1]; 58 days, % dietary KIC printed 0.2 (0%: 5.7), ** p<.05) was 5.0 and the Daily intake ([1]; 58 days, % dietary KIC printed 0.2 (0%: 16.0)) was 16.8 lb DM/day. The Ending wt. ([1]; 58 days, % dietary KIC printed 0.2 (0%: 756)) was 786 lb, the Daily gain ([1]; 161 days, 0.02% dietary KIC (0%: 2.66), *** p<.01) was 3.03 lb and the Feed/Gain ([1]; 161 days, 0.02% dietary KIC (0%: 8.0)) was 7.4. For the same compound, the Daily intake ([1]; 161 days, 0.02% dietary KIC (0%: 21.2)) was 22.6 lb DM/day, the Ending wt. ([1]; 161 days, 0.02% dietary KIC (0%: 1016)) was 1068 lb and the Daily gain ([1]; 161 days, 0.07% dietary KIC (0%: 2.66)) was 2.85 lb. The Feed/Gain ([1]; 161 days, 0.07% dietary KIC (0%: 8.0)) was 7.5, the Daily intake ([1]; 161 days, 0.07% dietary KIC (0%: 21.2)) was 21.6 lb DM/day and the Ending wt. ([1]; 161 days, 0.07% dietary KIC (0%: 1016)) was 1035 lb. The Feed conversion improvement ([1]; first 58 days, 0.02% KIC, p<0.05) was 13%, the daily gain increase ([1]; first 58 days, 0.02% KIC, p<0.07) was 20% and the daily gain increase ([1]; first 58 days, 0.07% KIC, NS) was 11%. The Feed conversion improvement ([1]; first 58 days, 0.07% KIC, p<0.17) was 9%, the Feed conversion improvement ([1]; first 58 days, 0.20% KIC, p<0.11) was 10% and the daily gain increase ([1]; first 58 days, 0.20% KIC, p<0.18) was 14%. The Feed conversion improvement ([1]; long-term trial, summary) was “up to 8%”, the daily gain increase ([1]; long-term trial, summary) was “up to 14%” and the “animals that died or were treated for sickness” value ([2]; KIC-treated groups (control: one died, one treated)) was “no animals”. The condemned liver ([2]; bovine, in vivo) was “one”, the “BKG: background blastogenesis” value (lymphocytes; Exp. 1, oral uncoated KIC 1% (control 466), p<.008) was 852 Counts/min per 2 × 10^5 cells and the “PHA: phytohemagglutinin-stimulated blastogenesis” value (lymphocytes; Exp. 1, oral uncoated KIC 1% (control 6100), p<.003) was 16800 Counts/min per 2 × 10^5 cells. For the same compound, the “PWM: pokeweed mitogen-stimulated blastogenesis” value (lymphocytes; Exp. 1, oral uncoated KIC 1% (control 19400), p<.77) was 17300 Counts/min per 2 × 10^5 cells, the “ConA: concanavalin A-stimulated blastogenesis” value (lymphocytes; Exp. 1, oral uncoated KIC 1% (control 41100), p<.81) was 44700 Counts/min per 2 × 10^5 cells and the “BKG: background blastogenesis” value (lymphocytes; Exp. 2, IP injected KIC (saline 752), p<.10) was 947 Counts/min per 2 × 10^5 cells. The “PHA: phytohemagglutinin-stimulated blastogenesis” value (lymphocytes; Exp. 2, IP injected KIC (saline 8500), p<.09) was 12600 Counts/min per 2 × 10^5 cells, the “PWM: pokeweed mitogen-stimulated blastogenesis” value (lymphocytes; Exp. 2, IP injected KIC (saline 21600), p<.72) was 29400 Counts/min per 2 × 10^5 cells and the “ConA: concanavalin A-stimulated blastogenesis” value (lymphocytes; Exp. 2, IP injected KIC (saline 31200), p<.87) was 33500 Counts/min per 2 × 10^5 cells. For the same compound, the “increase of PHA stimulation” value (lymphocytes; experiment 1, sheep, oral 1% KIC) was 280%, the “increase of PHA stimulation” value (lymphocytes; experiment 2, sheep, IP) was 150% and the “% SEG” value (white blood cells; Exp. 1, oral uncoated KIC 1% (control 38), p<.89) was 39% of Total WBC. The “% LYM” value (white blood cells; Exp. 1, oral uncoated KIC 1% (control 61), p<.34) was 59% of Total WBC, the “% EOS” value (white blood cells; Exp. 1, oral uncoated KIC 1% (control .7), p<.12) was 1.7% of Total WBC and the “% EOS” value (white blood cells; Exp. 2, IP injected KIC (saline 3.4), p<.01) was 1.7% of Total WBC. For the same compound, the “% SEG” value (white blood cells; Exp. 2, IP injected KIC (saline 41), p<.13) was 34% of Total WBC and the “% LYM” value (white blood cells; Exp. 2, IP injected KIC (saline 48), p<.04) was 61% of Total WBC.
